Assay results published in patent US10201558B2, “Compositions of selenoorganic compounds and methods of use thereof” (Alltech, Inc., priority 2014, dated 2019).
“Also recorded” adds a separate entry of the source.

Columns and labels:
[1] = system: NICASTRIN; assay: Western blot of NICASTRIN protein in IMR-32 cells; assay type: cell-based, human; settings: 150 ppb, 24 hours
Procedure: (§1) IMR-32 cells were seeded on 6-well plates and then treated with control and various compounds for 6 hours and 24 hours, as described above. After treatments, cells were rinsed with ice-cold PBS and lysed in ice-cold RIPA buffer containing complete proteinase and phosphatase inhibitors (Thermo-Fisher Scientific, Waltham, Mass.) on ice for 30 min Cell lysates were collected using a cell scraper and transfer pipette and then centrifuged at 12000×g for 30 min at 4° C. to remove the DNA pellet and obtain the protein extract. Protein levels in the supernatant of these cell lysates were determined using the Pierce Micro-BCA protein assay kit (Thermo Scientific-Piece Biotechnology, Rockford, Ill.) according to the manufacturer's protocol […]
(§2) Positive signals on the membrane blots were detected using Amersham's enhanced chemiluminescence (ECL) Western Blotting Prime Detection reagents (GE healthcare Lifescience, Pittsburgh, Pa.). Images of these luminescence signals on the membrane blots were captured using the LI-COR Odyssey Fc Image system (Lincoln, Nebr.). […] Protein band densities in the Western blots were determined using the Li—COR Image studio software or NIH ImageJ software, and then normalized by ACTB protein level in each sample. […]

[2] = system: Total Tau; assay: Western blot of Total Tau protein in IMR-32 cells; assay type: cell-based, human; settings: 150 ppb, 24 hours
Procedure: as §1, §2

[3] = system: PGC-1α; assay: Western blot of PGC-1α protein in IMR-32 cells; assay type: cell-based, human; settings: 150 ppb, 24 hours
Procedure: as §1, §2

[4] = system: p38; assay: Western blot of total p38 protein in IMR-32 cells; assay type: cell-based, human; settings: 150 ppb, 24 hours
Procedure: as §1, §2

[5] = system: UCP2; assay: QRT-PCR of UCP2 mRNA in IMR-32 cells; assay type: cell-based, human; settings: 150 ppb, 6 hours
Procedure: (§3) Human IMR-32 cells were seeded on gelatinized 6-well (6.5×10^5 cells/well) or 24-well (1.3×10^5 cells/well) plates. Cells were treated with control (0 ppb) or various compounds for 6 hours or 24 hours. Total RNA from these cells was isolated using Trizol (Invitrogen) according to the manufacturer's protocol, and then incubated with DNase I to remove any potential contaminated genomic DNA. Then RNA samples were subjected to real-time PCR analysis using the Applied-Bioscience's RT kit and predesigned Taqman probes (Invitrogen), as described previously (Lan et al EMBO J 2003). The mRNA levels of UCP1, UCP2, UCP3, SLC25A27 (UCP4), SLC25A14 (UCP5), PSEN1, Nicastrin, GSK3B, MAPK11-14, PPARG, APOE, RCAN1, RCAN1.1, G6PC, INSR, IGF1R and FOXO4 were measured. Three to six samples were analyzed in each treatment group. Data were normalized by Actin B (ACTB) or Glyceraldehyde Phosphate Dehydrogenase (GAPDH) mRNA levels in each sample and are presented as mean±SEM of 3-6 samples.

[6] = system: phosphorylated Tau (pTau S396, pTau S400/T403/S404); assay: Western blot of phosphorylated Tau in IMR-32 cells; assay type: cell-based, human; settings: 150 ppb, 24 hours
Procedure: IMR-32 cells were seeded on 6-well plates and then treated with control and various compounds for 6 hours and 24 hours, as described above. After treatments, cells were rinsed with ice-cold PBS and lysed in ice-cold RIPA buffer containing complete proteinase and phosphatase inhibitors (Thermo-Fisher Scientific, Waltham, Mass.) on ice for 30 min Cell lysates were collected using a cell scraper and transfer pipette and then centrifuged at 12000×g for 30 min at 4° C. to remove the DNA pellet and obtain the protein extract. Protein levels in the supernatant of these cell lysates were determined using the Pierce Micro-BCA protein assay kit (Thermo Scientific-Piece Biotechnology, Rockford, Ill.) according to the manufacturer's protocol
For Western blot analysis, five micrograms of total proteins from control (0 ppb)- and compound(s)-treated cells were subjected to SDS-PAGE gel separation and then transferred to PVDF membranes, as described previously (Reddy, Liu et al. 2008 Science). Membranes were blocked in a phosphate-buffered saline (PBS) containing 5% (w/v) of bovine serum albumin (Sigma, St. Louis, Mo.) and incubated with specific primary antibodies followed by the incubation with HRP-conjugated anti-mouse or anti-rabbit secondary antibodies (1:5000 dilution, Cell Signaling Inc.). All primary antibodies except PGC1a (Abcam, Cambridge, Mass.), G6pc (Santa Cruz, Dallas, Tex.) and Actb (Li-Cor, Lincoln, Nebr.) were purchased from Cell Signaling Inc., Beverly, Mass.
Positive signals on the membrane blots were detected using Amersham's enhanced chemiluminescence (ECL) Western Blotting Prime Detection reagents (GE healthcare Lifescience, Pittsburgh, Pa.). Images of these luminescence signals on the membrane blots were captured using the LI-COR Odyssey Fc Image system (Lincoln, Nebr.). The same membrane blot was stripped and re-blotted with another antibody as described in the GE WB ECL-prime-detection protocol (GE Healthcare Lifescience, Pittsburgh, Pa.). Protein band densities in the Western blots were determined using the Li—COR Image studio software or NIH ImageJ software, and then normalized by ACTB protein level in each sample. Data are presented as mean±SEM of three samples per each group.
To determine whether selenium Compound C, Compound D or Compound E can potentially contribute to diminished tangle formation in AD, the phosphorylation of two AD biomarkers, pTau S396 (Serine 396) and pTauS400/T403/5404 (Serine 400, Threonine 403, and Serine 404), as well as the Total Tau protein levels was assessed in IMR-32 cells. Phosphorylation of Tau at the indicated amino acid sites has been associated with destabilization of the Tau protein and the eventual formation of tangles. For this purpose, cells were treated with 150 ppb of Compound C, Compound D, or Compound E for 6 hours and 24 hours, and then subjected to Western blot analysis (see FIG. 4A). Mean±SEM, n=3.

[7] = system: primary fetal rat neurons; assay: Cell survival of primary cortical neurons (cell counts); assay type: cell-based; settings: 150 ppb selenium compound(s), 24 hours; Control 100 ± 1.57; mixture: 30 ppb of the element from each compound
Procedure: For primary neurons, dissociated primary cortical neuron cultures were established from E-18 rat embryos as previously described (Lovell et al., Free Radic. Biol. Med. 2000; Lovell et al., Neurobiol. Aging 2001). Studies were carried out on cells 7 days in culture by switching to Locke's solution consisting of 1 mL of 154 mM NaCl, 5.6 mM KCl, 2.3 mM CaCl2, 1.0 mM MgCl2, 3.6 mM NaHCO3, 10 mM glucose, 5 mM HEPES (pH 7.2) with 10 mg/L gentamicin sulfate. Primary neurons were treated for 24 hours in Locke's solution with the indicated selenium and sulfur compounds in Table 5. Cell counts were performed to measure cell survival/toxicity.
The effects of the selenium and sulfur compounds, identified as components of water extracts of selenium-enriched yeast, on neuronal cell survival was also tested. Primary neurons isolated from fetal rat brain were incubated with chemically synthesized individual selenium and sulfur compounds that were identified as components of water extracts of selenium-enriched yeast (Table 5). In this case, the elemental concentration of each compound identified in Table 5 was 150 ppb and, where mixtures were used, the 150 ppb treatment was made up of 30 ppb of the element from each of the five compounds in question.

[8] = system: PSEN1; assay: QRT-PCR of PSEN1 mRNA in IMR-32 cells; assay type: cell-based, human
Procedure: as §3
RNA samples were extracted, purified, and subjected to real-time PCR analysis using Applied-Bioscience's RT kit and Taqman probes (Invitrogen) as described previously in Example 4. Protein samples were also prepared from cell lysates and western blot analysis was performed as previously described in Example 4. Data are presented as mean±SEM of 3 protein samples and 4 RNA samples per group. The relative mRNA and protein expression levels of PSEN1 and NICASTRIN, were measured. All primary antibodies were purchased from Cell Signaling Inc., Beverly, Mass.

SMILES | NICASTRIN protein levels [1] | total Tau protein level [2] | PGC-1α protein levels (normalized by ACTB) [3] | Total p38 protein levels [4] | UCP2 mRNA expression [5] | phosphorylation of Tau at 5400/T403/5404 [6] | phosphorylation of Tau at S396 [6] | ratio of total pTau at both S396 and S400/T403/S404 to total Tau proteins [6] | Viable Cell Number (Mean ± SEM, n = 6) [7] | PSEN1 mRNA expression, dose response ([8]; 75 ppb and 150 ppb, 24 hours) | PSEN1 mRNA expression ([8]; 150 ppb, 6 hours and 24 hours) | PSEN1 mRNA expression ([8]; 24 hours)
C[Se]C[C@H]1O[C@@H](n2cnc3c(N)ncnc32)C(O)C1O (stereo in doubt) [Compound C, 5′-deoxy-5′-methylselenoadenosine] | significant reduction | did not affect | increase; also recorded: elevated | visibly decreased; also recorded: statistically significant decrease | significant decrease; also recorded: inhibited | significantly inhibited | not at S396 | significantly attenuated | 101.1 ± 4.22 | Significant dose-dependent decreases | significantly reduced | –
C[Se]C[C@H](NC(=O)CC[C@H](N)C(=O)O)C(=O)O [Compound E, γ-L-glutamyl-Se-methyl-L-selenocysteine] | trend towards reduced | significantly down-regulated | increase | not observed; also recorded: not Compound E | did not have any effect | significantly down-regulated | significantly down-regulated | trend towards reduced | 95.69 ± 10.53 | – | – | stimulated
